# Laboratory results taken from patent US11345694B2, “Antibacterial compounds” (DISCUVA LTD., priority 2017, dated 2022).
# Experiments:
# [1] = test system: E. coli NCTC 13441 (UPEC); assay: MIC broth microdilution; format: cell-based, Escherichia coli; details: for MIC: Escherichia coli, NCTC13441
# In short: (§1)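 Read-out is visible growth: the MIC is the lowest compound concentration that prevents it after incubating 20-24 hours at 37° C in air. Compounds span 0.39-200 μM final (two-fold steps, up to 2% DMSO) in cation-adjusted Müller-Hinton broth, following CLSI guidelines for planktonic bacteria.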
# [2] = test system: Acinetobacter baumannii ATCC 17978 (AB); assay: MIC broth microdilution; format: cell-based; details: for MIC: ATCC17978
# In short: as §1
# [3] = test system: Enterobacter cloacae DSM 30054 (Ed); assay: MIC broth microdilution; format: cell-based
# In short: (§2)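 Growth inhibition read after 20-24 hour incubation at 37° C in ambient atmosphere; MIC is the lowest compound concentration with no growth. Planktonic bacteria in cation-adjusted Müller-Hinton broth were exposed to two-fold dilutions (0.39-200 μM final; ≤2% DMSO final) per CLSI guidelines.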
# [4] = test system: Escherichia coli K12 (EC); assay: MIC broth microdilution; format: cell-based
# In short: as §1
# [5] = test system: Klebsiella pneumoniae ATCC 10031 (KP2); assay: MIC broth microdilution; format: cell-based; details: for MIC: ATCC10031
# In short: as §2
# [6] = test system: Pseudomonas aeruginosa ATCC 33359 (PA); assay: MIC broth microdilution; format: cell-based; details: for MIC: ATCC33359
# In short: as §1
# [7] = test system: Salmonella typhimurium XNAA5 (St); assay: MIC broth microdilution; format: cell-based
# In short: as §1
# [8] = test system: Serratia marcescens SL1344 (Sm); assay: MIC broth microdilution; format: cell-based
# In short: as §1
# [9] = test system: Staphylococcus aureus ATCC 35556 (SA); assay: MIC broth microdilution; format: cell-based; details: for MIC: ATCC35556
# In short: as §1
# [10] = test system: K. pneumoniae NCTC 13438 (KP1); assay: MIC broth microdilution; format: cell-based, Klebsiella pneumoniae; details: for MIC: Klebsiella pneumoniae, NCTC13438
# In short: as §2
# [11] = test system: human hepatocarcinoma cell line ATCC HB-8065 (HepG2); assay: Human cell viability (CellTiter-Glo); format: cell-based; details: Homo sapiens; HepG2 cells, 24 h incubation, CellTiter-Glo luminescence, 0.2-100 μM; read-out: IC50 values against the HepG2 cell line
# In short: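 Cytotoxicity was read as CellTiter-Glo luminescence after 24 h compound exposure at 37° C., 5% CO2. Final concentrations spanned 0.2-100 μM in two-fold steps, in 1% FBS MEM with 1% DMSO, on cells plated a day earlier at 20,000/well. IC50 came from 4-parameter logistic regression.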
# [12] = test system: Klebsiella pneumoniae ATCC 51504 (KP4); assay: MIC broth microdilution; format: cell-based; details: ATCC51504
# In short: as §1
# [13] = test system: K. pneumoniae ATCC 700603 (KP3); assay: MIC broth microdilution; format: cell-based, Klebsiella pneumoniae; details: for MIC: Klebsiella pneumoniae, ATCC700603
# In short: as §2
# [14] = test system: K. pneumoniae H151440671 (KP10); assay: MIC broth microdilution; format: cell-based, Klebsiella pneumoniae; details: for MIC: Klebsiella pneumoniae
# In short: as §2
# [15] = test system: K. pneumoniae H154020667 (KP6); assay: MIC broth microdilution; format: cell-based, Klebsiella pneumoniae; details: for MIC: Klebsiella pneumoniae
# In short: as §2
# [16] = test system: K. pneumoniae H154300688 (KP9); assay: MIC broth microdilution; format: cell-based, Klebsiella pneumoniae; details: for MIC: Klebsiella pneumoniae
# In short: as §2
# [17] = test system: K. pneumoniae H154600588 (KP8); assay: MIC broth microdilution; format: cell-based, Klebsiella pneumoniae; details: for MIC: Klebsiella pneumoniae
# In short: as §2
# [18] = test system: K. pneumoniae H154640784 (KP7); assay: MIC broth microdilution; format: cell-based, Klebsiella pneumoniae; details: for MIC: Klebsiella pneumoniae
# In short: as §2
# [19] = test system: K. pneumoniae H154680676 (KP5); assay: MIC broth microdilution; format: cell-based, Klebsiella pneumoniae; details: for MIC: Klebsiella pneumoniae
# In short: as §2
Structure (SMILES),MIC [1] [µM],MIC [2] [µM],MIC [4] [µM],MIC [5] [µM],MIC [6] [µM],MIC [9] [µM],MIC [10] [µM],IC50 [11] [µM],MIC [12] [µM],MIC [13] [µM],MIC [14] [µM],MIC [15] [µM],MIC [16] [µM],MIC [17] [µM],MIC [18] [µM],MIC [19] [µM],MIC UPEC [1],MIC AB [2],MIC Ecl [3],MIC EC [4],other results
C[C@@H](O)[C@H]1C(=O)N2C(C(=O)O)=C(SCCN=CN)C[C@H]12 [IPM],–,–,–,–,–,–,–,–,–,–,–,–,–,–,–,–,A (an MIC (μM) of less or equal to 1 is assigned the letter A),A (an MIC (μM) of less or equal to 1 is assigned the letter A),B (a MIC of from 1 to 10 is assigned the letter B),A (an MIC (μM) of less or equal to 1 is assigned the letter A),MIC KP2 [5]: B (a MIC of from 1 to 10 is assigned the letter B); MIC PA [6]: B (a MIC of from 1 to 10 is assigned the letter B); MIC St [7]: B (a MIC of from 1 to 10 is assigned the letter B); MIC Sm [8]: B (a MIC of from 1 to 10 is assigned the letter B); MIC SA [9]: A (an MIC (μM) of less or equal to 1 is assigned the letter A); MIC KP3 [13]: B (a MIC of from 1 to 10 is assigned the letter B); MIC KP10 [14]: C (a MIC of from 10 to 100 is assigned the letter C); MIC KP6 [15]: B (a MIC of from 1 to 10 is assigned the letter B); MIC KP9 [16]: D (a MIC of over 100 is assigned the letter D); MIC KP8 [17]: D (a MIC of over 100 is assigned the letter D); MIC KP7 [18]: C (a MIC of from 10 to 100 is assigned the letter C); MIC KP5 [19]: B (a MIC of from 1 to 10 is assigned the letter B); MIC KP1 [10]: C (a MIC of from 10 to 100 is assigned the letter C)
NC[C@H]1O[C@H](O[C@H]2[C@H](O)[C@@H](O[C@H]3O[C@H](CO)[C@@H](O)[C@H](N)[C@H]3O)[C@H](N)C[C@@H]2N)[C@H](N)C[C@@H]1O [TOB],–,–,–,–,–,–,–,–,–,–,–,–,–,–,–,–,D (a MIC of over 100 is assigned the letter D),B (a MIC of from 1 to 10 is assigned the letter B),C (a MIC of from 10 to 100 is assigned the letter C),B (a MIC of from 1 to 10 is assigned the letter B),MIC PA [6]: B (a MIC of from 1 to 10 is assigned the letter B); MIC St [7]: B (a MIC of from 1 to 10 is assigned the letter B); MIC Sm [8]: A (an MIC (μM) of less or equal to 1 is assigned the letter A); MIC SA [9]: B (a MIC of from 1 to 10 is assigned the letter B)

# Further lines, with some results ahead:
MIC [1] [µM],MIC [2] [µM],MIC [4] [µM],MIC [5] [µM],MIC [6] [µM],MIC [9] [µM],MIC [10] [µM],IC50 [11] [µM],MIC [12] [µM],MIC [13] [µM],MIC [14] [µM],MIC [15] [µM],MIC [16] [µM],MIC [17] [µM],MIC [18] [µM],MIC [19] [µM],Structure (SMILES),MIC UPEC [1],MIC AB [2],MIC Ecl [3],MIC EC [4],other results
1 to 10,> 100,1 to 10,≤ 1,> 100,> 100,10 to 100,> 100,–,–,–,–,–,–,–,–,"COc1ccc(-c2[nH]c(N)nc2-c2ccnc(C)c2)cc1 [Example 21, 5-(4-Methoxyphenyl)-4-(2-methylpyridin-4-yl)-1H-imidazol-2-amine]",–,–,–,–,MIC ([3]; DSM30054): > 100 µM; MIC ([7]; Salmonella enterica): > 100 µM; MIC [8]: > 100 µM
1 to 10,> 100,≤ 1,≤ 1,> 100,> 100,1 to 10,25 to 100,1 to 10,1 to 10,1 to 10,≤ 1,1 to 10,1 to 10,1 to 10,≤ 1,"Cc1cc(-c2[nH]c(N)nc2-c2ccc3c(c2)N(CC2CC2)CCO3)ccn1 [Example 92, 4-(4-(Cyclopropyl-methyl)-3,4-dihydro-2H-benzo[b][1,4]oxazin-6-yl)-5-(2-methylpyridin-4-yl)-1H-imidazol-2-amine]",–,–,–,–,–
≤ 1,> 100,≤ 1,≤ 1,> 100,> 100,1 to 10,25 to 100,≤ 1,1 to 10,≤ 1,≤ 1,1 to 10,1 to 10,1 to 10,≤ 1,"Cc1cc(-c2[nH]c(N)nc2-c2ccc3c(c2)N(C(C)C)CCO3)ccn1 [Example 93, 4-(4-isopropyl-3,4-dihydro-2H-benzo[b][1,4]oxazin-6-yl)-5-(2-methylpyridin-4-yl)-1H-imidazol-2-amine]",–,–,–,–,–
